The subject of data set [1] is adult healthy male and female volunteers. The conditions noted are these: ref Himmelfarb et al., 2018, cited from earlier work. As for the experimental part:
In the second study, THR-P-428 (MAD), THR-184 was administered as a slow intravenous infusion in a total of 24 adult healthy male and female volunteers, once daily over five consecutive days. THR-184 or the placebo was administered on the morning after a 10-h overnight fast. The solution was administered by slow injection via an indwelling catheter, at an infusion rate of 1 ml/min over 60 min. Three dose levels were studied: 0.3 mg/kg, 1 mg/kg, and 3 mg/kg. Adverse events were recorded continuously during the study.

A further data set relates to cancer growth. Nature of the data set: Preclinical overview: cancer growth. An excerpt: (§1) TABLE 2 THR-184 overview.
The conditions of data set [2]: cited from earlier work.
Another data set deals with CYP450 2D6 (Homo sapiens, UniProt P10635). Nature of the data set: CYP450 isoform effect. It counts as in vitro ADME.
Description: as §1

The target in the next data set is CYP450 2C9 (Homo sapiens, UniProt P11712). As to the kind of experiment: CYP450 isoform effect. It counts as in vitro ADME.
Description: as §1

The next data set deals with CYP450 2C19 (Homo sapiens, UniProt P33261). Nature of the data set: CYP450 isoform effect. It counts as in vitro ADME.
Description: as §1

In another data set the target is CYP450 3A4 (Homo sapiens, UniProt P08684). Nature of the data set: CYP450 isoform effect. It counts as in vitro ADME.
Description: as §1

Data set [3] relates to adult healthy male and female volunteers. The conditions noted are these: ref Himmelfarb et al., 2018, cited from earlier work. The procedure: In the first study, THR-P-427 (SAD), the drug (THR-184) was administered as slow intravenous infusions in a total of 40 adult healthy male and female volunteers. The study drug or placebo was administered once on the morning after a 10-h overnight fast. The solution was administered by slow injection via an indwelling catheter, at an infusion rate of 1 ml/min over 60 min. Five dose levels were studied: 0.3 mg/kg, 1 mg/kg, 3 mg/kg, 6 mg/kg and 10 mg/kg. Adverse events were recorded continuously during the study.
The source holds these as a separate data set.

For the next data set, the target named is T1, CYP450 1A2 (Homo sapiens, UniProt P05177).
T1 sequence (P05177 1-516): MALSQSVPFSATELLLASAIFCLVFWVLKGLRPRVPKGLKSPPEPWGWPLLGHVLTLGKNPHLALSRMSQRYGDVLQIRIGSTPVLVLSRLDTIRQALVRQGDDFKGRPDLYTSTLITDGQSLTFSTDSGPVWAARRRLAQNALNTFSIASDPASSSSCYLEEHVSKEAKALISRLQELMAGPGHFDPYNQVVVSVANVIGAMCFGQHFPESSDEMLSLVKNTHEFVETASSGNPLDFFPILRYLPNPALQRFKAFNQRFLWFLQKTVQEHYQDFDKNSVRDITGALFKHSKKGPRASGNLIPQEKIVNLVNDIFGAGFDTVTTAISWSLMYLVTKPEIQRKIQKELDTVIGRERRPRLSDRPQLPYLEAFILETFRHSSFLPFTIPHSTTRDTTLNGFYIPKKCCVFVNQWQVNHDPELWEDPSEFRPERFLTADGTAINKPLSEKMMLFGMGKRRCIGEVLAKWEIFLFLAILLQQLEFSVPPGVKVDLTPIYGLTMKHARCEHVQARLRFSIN
It counts as in vitro ADME.
Description: as §1

For the next data set, the system named is wound healing.
Description: as §1

For the next data set, the system named is bleeding time.
Description: as §1

For a further data set, the system named is hemodynamics.
Description: as §1

The nature of another data set: Off-target survey. The conditions noted are these: 114 targets surveyed.
Description: as §1

Data set [4] concerns patients having major cardio-vascular surgery requiring the cardiopulmonary pump. Nature of the data set: Phase II clinical trial NCT01830920, AKI after cardio-vascular surgery with cardiopulmonary pump. It counts as in vivo, human. The conditions noted are these: clinical trial pharmacokinetic data; large variability of C Max and AUC. From the text: The objective of the Phase II clinical trial, NCT01830920, ([Thrasos Innovation, Inc, 2013]), was to establish the dose, safety, and preliminary efficacy of THR-184 in a targeted patient population having major cardio-vascular surgery requiring the use of the cardiopulmonary pump The primary outcome of this clinical trial was the proportion of patients who develop AKI according to the KDIGO criteria ([Kidney Disease: Improving Global Outcomes (KDIGO) Acute Kidney Injury Work Group, 2012]). […] Use of urinary creatinine is not part of the KDIGO AKI criteria, but rather it is the urinary output that is part of the AKI definition. […] The clinical trial included serum samples for the analysis of KIM-1 and NGAL as exploratory endpoints, but there are as yet no published results from those samples.
SAE: number of Serious Adverse Events.

Data set [5] has the same test system. The conditions noted are these: ref Himmelfarb et al., 2018, cited from earlier work.
Data set [6] can be described thus: Stability of THR-184 in human plasma with and without ACE inhibitor. It counts as in vitro ADME. The conditions noted are these: compound administered with an ACE inhibitor, read-out: serum half-life. An excerpt: Protease degradation of drug candidates can shorten their in-plasma half-life to the point that therapeutic exposure is severely compromised resulting in loss of efficacy.

A further data set relates to ectopic bone formation. As to the kind of experiment: Rat implant assay of ectopic bone formation. The conditions noted are these: implanted in muscle pocket (Hydrogel or collagen carrier device), implants removed day 14, histology toluidine blue. It counts as in vivo. The procedure: FIGURE 2 Failure of BMP-7 mimetic (THR-123) to induce ectopic bone formation in rat implant assay: This assay is based on the ability of BMP-7 to induce ectopic bone formation in the rat and was carried out as described earlier (The Journal of Biological Chemistry, Vol. 267, pp. 20352-20362,1992) to determine in vivo efficacy of THR-123. Briefly, bovine bone matrix (collagen carrier)/BMP-7 or Hydrogel/BMP-7 or Hydrogel/THR-123, devices (all lyophilized) were implanted in muscle pocket. […] This work was supported by Thrasos Therapeutics.

The mark [7] stands for this setting: occurred equally in placebo and THR-184 treated subjects.
Where [8] appears, read: Arm 4 High Dose 0.46/0.02 mg/kg.
[9] abbreviates: Arm 5 Highest Dose 0.46/0.46 mg/kg.

Read-outs that look alike come from different tables or passages of the source. Marks after values point to notes of the source that are not given here. Bridge positions count the residues as written; N and C are the ends. Peptide text beside a SMILES is read from it.

One may read the half-life as the time needed for the level to fall by half in the phase considered.

CYP450 3A4, sequence (P08684 whole entry, canonical isoform): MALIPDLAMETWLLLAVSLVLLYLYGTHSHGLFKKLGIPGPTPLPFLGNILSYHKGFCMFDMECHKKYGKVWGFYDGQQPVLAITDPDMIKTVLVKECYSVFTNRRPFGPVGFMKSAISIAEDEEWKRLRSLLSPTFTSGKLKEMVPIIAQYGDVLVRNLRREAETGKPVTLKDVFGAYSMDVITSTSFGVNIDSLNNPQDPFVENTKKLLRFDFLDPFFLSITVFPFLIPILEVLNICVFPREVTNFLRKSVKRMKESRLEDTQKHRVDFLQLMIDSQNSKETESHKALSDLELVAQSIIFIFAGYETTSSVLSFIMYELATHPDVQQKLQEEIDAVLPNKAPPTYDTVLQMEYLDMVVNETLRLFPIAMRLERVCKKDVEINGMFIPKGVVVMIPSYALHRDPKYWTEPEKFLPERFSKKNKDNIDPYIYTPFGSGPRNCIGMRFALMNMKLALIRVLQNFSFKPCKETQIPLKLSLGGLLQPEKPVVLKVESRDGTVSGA
CYP450 2D6, sequence (P10635 whole entry, canonical isoform): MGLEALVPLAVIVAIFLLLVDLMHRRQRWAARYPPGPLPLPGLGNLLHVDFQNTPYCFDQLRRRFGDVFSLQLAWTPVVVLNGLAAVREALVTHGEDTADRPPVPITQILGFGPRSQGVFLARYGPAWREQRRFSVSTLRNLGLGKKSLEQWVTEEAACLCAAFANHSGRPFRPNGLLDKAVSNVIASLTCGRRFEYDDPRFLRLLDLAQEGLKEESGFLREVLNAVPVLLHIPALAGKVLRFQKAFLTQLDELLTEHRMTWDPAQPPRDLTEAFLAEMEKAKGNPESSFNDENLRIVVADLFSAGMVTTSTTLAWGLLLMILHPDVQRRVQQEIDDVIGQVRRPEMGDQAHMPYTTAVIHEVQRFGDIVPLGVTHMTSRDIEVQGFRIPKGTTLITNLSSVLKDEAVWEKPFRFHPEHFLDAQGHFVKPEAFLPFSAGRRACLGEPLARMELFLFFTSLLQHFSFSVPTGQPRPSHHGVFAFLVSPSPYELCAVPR
CYP450 2C19, sequence (P33261 whole entry, canonical isoform): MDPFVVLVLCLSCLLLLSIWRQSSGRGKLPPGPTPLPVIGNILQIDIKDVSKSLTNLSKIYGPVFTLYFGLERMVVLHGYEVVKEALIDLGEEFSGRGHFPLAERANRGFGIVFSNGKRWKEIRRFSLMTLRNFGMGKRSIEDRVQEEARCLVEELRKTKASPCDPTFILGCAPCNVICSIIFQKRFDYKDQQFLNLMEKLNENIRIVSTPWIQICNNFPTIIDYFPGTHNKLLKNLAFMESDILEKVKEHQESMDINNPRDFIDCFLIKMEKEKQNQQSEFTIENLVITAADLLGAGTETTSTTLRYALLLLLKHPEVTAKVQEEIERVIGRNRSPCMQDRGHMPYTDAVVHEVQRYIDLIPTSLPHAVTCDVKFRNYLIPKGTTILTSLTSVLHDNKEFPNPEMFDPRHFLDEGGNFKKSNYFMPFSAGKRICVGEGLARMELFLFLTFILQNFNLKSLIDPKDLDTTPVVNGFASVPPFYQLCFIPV
CYP450 2C9, sequence (P11712 whole entry, canonical isoform): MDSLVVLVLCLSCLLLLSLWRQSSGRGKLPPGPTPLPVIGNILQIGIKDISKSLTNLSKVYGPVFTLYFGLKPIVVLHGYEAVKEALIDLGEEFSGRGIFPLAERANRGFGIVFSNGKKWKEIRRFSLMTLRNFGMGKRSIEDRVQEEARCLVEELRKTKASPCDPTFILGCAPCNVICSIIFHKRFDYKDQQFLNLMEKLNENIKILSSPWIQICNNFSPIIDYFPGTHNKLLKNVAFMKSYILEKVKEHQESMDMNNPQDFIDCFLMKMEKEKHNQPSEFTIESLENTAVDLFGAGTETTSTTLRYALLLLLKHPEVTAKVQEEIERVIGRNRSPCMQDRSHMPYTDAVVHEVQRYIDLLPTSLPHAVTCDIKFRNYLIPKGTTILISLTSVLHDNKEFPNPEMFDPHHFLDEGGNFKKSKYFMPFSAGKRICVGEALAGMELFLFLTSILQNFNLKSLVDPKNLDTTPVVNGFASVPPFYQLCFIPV

For the molecule `CC(C)C[C@@H]1NC(=O)[C@H](C(C)C)NC(=O)[C@H](CO)NC(=O)[C@H](CO)NC(=O)[C@H](CO)NC(=O)[C@H](CC(N)=O)NC(=O)[C@H](CC(=O)O)NC(=O)[C@H](Cc2ccc(O)cc2)NC(=O)[C@H](Cc2ccc(O)cc2)NC(=O)[C@@H](N)CSSC[C@@H](C(=O)N[C@@H](CCCCN)C(=O)N[C@@H](CCCNC(=N)N)C(=O)N[C@@H](Cc2ccc(O)cc2)C(=O)N[C@@H](CCCNC(=N)N)C(=O)N[C@@H](CO)C(=O)O)NC1=O` [THR-184] (H-CYYDNSSSVLCKRYRS-OH; disulfide 1-11), the serious adverse events entry in [1] (60 min iv infusion once daily for five days, 0.3-3 mg/kg, healthy volunteers) is “no serious adverse events observed”; in data set [3] (single 60 min iv infusion, 0.3-10 mg/kg, healthy volunteers), “no serious adverse events observed”. In addition, the “most frequently observed adverse event” value in data set [1] (setting [7]) was “somnolence”; in data set [3] (setting [7]), “headache”. In the data set with cancer growth, the cancer growth entry is reported as “Does not promote cancer growth”. For the same molecule, in data set [2], the “Human Plasma Stability: t1/2” value is reported as 6 min. At CYP450 2D6, the “effect on CYP450 2D6” value is “Has no effect on key CYP450 isoforms (1A2, 2C19, 2C9, 2D6, 3A4)”. Moreover, at CYP450 2C9, the “effect on CYP450 2C9” value was “Has no effect on key CYP450 isoforms (1A2, 2C19, 2C9, 2D6, 3A4)”. In addition, the “effect on CYP450 2C19” value on CYP450 2C19 is given as “Has no effect on key CYP450 isoforms (1A2, 2C19, 2C9, 2D6, 3A4)”. Besides, on CYP450 3A4, the “effect on CYP450 3A4” value is recorded as “Has no effect on key CYP450 isoforms (1A2, 2C19, 2C9, 2D6, 3A4)”. In addition, the “effect on CYP450 1A2” value on CYP450 1A2 is given as “Has no effect on key CYP450 isoforms (1A2, 2C19, 2C9, 2D6, 3A4)”. In addition, the wound healing entry in the data set on wound healing is reported as “Does not inhibit wound healing”. For the same molecule, the bleeding time result with bleeding time is “Does not affect bleeding time”. Moreover, the hemodynamics result in the data set on hemodynamics was “Does not affect hemodynamics”. Further, in the data set “Off-target survey”, the off-target interactions entry is “Has no off-target interactions (114 targets surveyed)”. In data set [4], the “relationship of dose to serum levels” value is “clear relationship of the dose to serum levels of the compound”. The Deaths is recorded as 4 # in data set [5] (Arm 2 Low Dose 0.02/0.02 mg/kg), 5 # in [5] (Arm 3 Mid Dose 0.12/0.02 mg/kg), 4 # in [5] (setting [8]) and 5 # in data set [5] (setting [9]). Besides, the “SAE > 1 (Serious Adverse Events)” value is listed as 46.7% in [5] (Arm 2 Low Dose 0.02/0.02 mg/kg), 59.6% in [5] (Arm 3 Mid Dose 0.12/0.02 mg/kg), 42.0% in data set [5] (setting [8]) and 41.0% in data set [5] (setting [9]). For the same molecule, the half-life in data set [6] amounted to 1 h.

B1: BMP-7: Bone Morphogenetic Protein-7, positive control in rat implant assay (protein, UniProt P18075 293-431, looked up)
Bone morphogenetic protein 7: STGSKQRSQNRSKTPKNQEALRMANVAENSSSDQRQACKKHELYVSFRDLGWQDWIIAPEGYAAYYCEGECAFPLNSYMNATNHAIVQTLVHFINPETVPKPCCAPTQLNAISVLYFDDSSNVILKKYRNMVVRACGCH
As for B1, the ectopic bone formation entry with ectopic bone formation is recorded as “induced bone formation”.

These data come from article PMC9306349, “A Process for the Design and Development of Novel Bone Morphogenetic Protein-7 (BMP-7) Mimetics With an Example: THR-184” (Frontiers in Pharmacology, 2022).
